Results from patent US9732075B2, “Benzimidazole-proline derivatives” (IDORSIA PHARMACEUTICALS LTD, priority 2012, dated 2017).

Experiments:
human orexin-1 receptor = human orexin-1 receptor (Homo sapiens (Human), UniProt O43613); assay: In vitro assay: intracellular calcium measurements (FLIPR), antagonistic activity; type: cell-based; details: CHO cells expressing human orexin-1 receptor, orexin-A agonist, geometric mean, read-out: IC50 Ox1
In short: (§1)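 Read-out: FLIPR fluo-4 calcium peak height in CHO cells bearing human orexin-1 or orexin-2 receptor, relative to orexin-A (approx. EC70) with vehicle. Antagonist preincubation 120 min; agonist orexin-A at 3 nM final. IC50 possibly normalized to an on-plate reference compound.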

human orexin-2 receptor = human orexin-2 receptor (Homo sapiens (Human), UniProt O43614); assay: as above; type: cell-based; details: CHO cells expressing human orexin-2 receptor, orexin-A agonist, geometric mean, read-out: IC50 Ox2
Chain of human orexin-2 receptor (O43614 whole entry): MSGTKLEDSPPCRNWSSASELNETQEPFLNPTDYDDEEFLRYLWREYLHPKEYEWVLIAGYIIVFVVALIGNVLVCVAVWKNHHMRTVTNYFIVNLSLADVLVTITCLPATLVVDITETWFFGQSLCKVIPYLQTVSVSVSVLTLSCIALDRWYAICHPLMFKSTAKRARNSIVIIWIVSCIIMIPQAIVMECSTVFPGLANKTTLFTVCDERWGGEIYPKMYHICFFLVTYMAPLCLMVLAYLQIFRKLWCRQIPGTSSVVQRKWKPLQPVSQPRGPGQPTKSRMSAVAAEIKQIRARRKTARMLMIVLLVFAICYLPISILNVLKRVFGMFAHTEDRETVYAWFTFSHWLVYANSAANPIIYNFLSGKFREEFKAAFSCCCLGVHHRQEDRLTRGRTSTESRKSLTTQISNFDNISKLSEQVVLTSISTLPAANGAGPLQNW
In short: as §1

Chain of human orexin-1 receptor (O43613 whole entry): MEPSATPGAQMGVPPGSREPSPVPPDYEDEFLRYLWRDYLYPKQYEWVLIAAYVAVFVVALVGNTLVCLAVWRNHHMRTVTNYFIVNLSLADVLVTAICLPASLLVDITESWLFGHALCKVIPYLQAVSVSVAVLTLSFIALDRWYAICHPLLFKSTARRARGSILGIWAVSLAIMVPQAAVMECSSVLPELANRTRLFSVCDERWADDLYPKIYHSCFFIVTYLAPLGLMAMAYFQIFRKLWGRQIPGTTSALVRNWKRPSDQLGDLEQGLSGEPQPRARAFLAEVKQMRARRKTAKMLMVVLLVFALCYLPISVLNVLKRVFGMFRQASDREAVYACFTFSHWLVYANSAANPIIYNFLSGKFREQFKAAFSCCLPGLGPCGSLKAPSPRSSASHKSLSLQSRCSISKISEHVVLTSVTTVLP

Row | Structure (SMILES) | IC50 (human orexin-1 receptor) [nM] | IC50 (human orexin-2 receptor) [nM]
1 | Cc1ccc(-n2cccn2)c(C(=O)N2CC[C@H](C)[C@H]2c2nc3c(C)c(Cl)ccc3[nH]2)c1 [Ex. 4.64] | 5 | 800
2 | C=C1C[C@@H](c2nc3c(C)c(Cl)ccc3[nH]2)N(C(=O)c2nc(C)sc2-c2cccc(Cl)c2)C1 [Ex. 6.45] | 1 | 1
3 | COc1cc2nc([C@]3(C)CCCN3C(=O)c3sc(C)nc3-c3ccc(C)cc3)[nH]c2cc1OC [Ex. 5.75] | 300 | 126
4 | COc1cccc(C#Cc2ccccc2C(=O)N2CCC[C@@]2(C)c2nc3cc(C(F)(F)F)ccc3[nH]2)c1 [Ex. 5.250] | 184 | 992
5 | Cc1ccc(-c2ccc(F)cc2)c(C(=O)N2CCC[C@@]2(C)c2nc3cc(C)c(C)cc3n2C)c1 [Ex. 7.15] | 11 | 65
6 | COc1cc2nc([C@]3(C)CCCN3C(=O)c3nc(C)sc3-c3ccc(C(F)(F)F)cc3)[nH]c2cc1OC [Ex. 5.74] | 592 | 414
7 | C=C1C[C@@H](c2nc3c(C)cccc3[nH]2)N(C(=O)c2nc(C)sc2-c2cccc(Cl)c2)C1 [Ex. 6.44] | 10 | 2
8 | COc1cc2nc([C@@H]3[C@@H](C)CCN3C(=O)c3cc(Cl)ccc3-n3nccn3)[nH]c2cc1OC [Ex. 4.40] | 21 | 28
9 | Cc1ccc2[nH]c([C@@H]3[C@@H](C)CCN3C(=O)c3nc(C)sc3-c3cccc(Cl)c3)nc2c1 [Ex. 4.3] | 8 | 1350
10 | C=C1CN(C(=O)c2ccccc2-c2ccc(C)c(C)c2)C(C)(c2nc3cc(OC)ccc3[nH]2)C1 (stereo not shown) [Ex. 6.149] | 59 | 90
11 | COc1ccccc1-c1sc(C)nc1C(=O)N1CC[C@H](C)[C@H]1c1nc2cc(C(F)(F)F)ccc2[nH]1 [Ex. 4.147] | 13 | 9650
12 | COc1cc2nc([C@@H]3[C@@H](C)CCN3C(=O)c3cc(F)ccc3-n3nccn3)[nH]c2cc1OC [Ex. 4.41] | 182 | 248
13 | CO[C@H]1CN(C(=O)c2cc(Cl)ccc2-n2nccn2)C(C)(c2nc3c(C)c(Cl)ccc3[nH]2)C1 (stereo partly shown) [Ex. 3.44] | 3 | 6
14 | CSc1cccc2nc([C@@H]3CCCN3C(=O)c3nccnc3-c3cc(C)cc(F)c3)[nH]c12 [Ex. 1.74] | 52 | 100
15 | Cc1nc(C(=O)N2CCCC2c2nc3cc(C(C)(C)C)ccc3[nH]2)c(-c2cccc(Cl)c2)s1 (stereo not shown) [Ex. 1.99] | 58 | 50
16 | COc1ccc2[nH]c([C@]3(C)CCCN3C(=O)c3cc(C)ccc3-n3nccn3)nc2c1 [Ex. 5.32] | 90 | 46
17 | COc1cccc(-c2ccc(OC)c(F)c2C(=O)N2CCC[C@@]2(C)c2nc3c(C)c(Cl)ccc3[nH]2)c1 [Ex. 5.296] | 25 | 31
18 | Cc1cc2[nH]c([C@@H]3[C@@H](C)CCN3C(=O)c3cc(C(F)(F)F)ccc3-c3ccccc3)nc2cc1Cl [Ex. 4.114] | 33 | 1360
19 | COc1ccc(-c2ccc(C)cc2C(=O)N2CCC[C@@]2(C)c2nc3cc(C(F)(F)F)c(Cl)cc3[nH]2)cc1 [Ex. 5.150] | 37 | 49
20 | Cc1nc(C(=O)N2CC[C@H](C)[C@H]2c2nc3c(Cl)cccc3[nH]2)c(-c2cc(F)cc(F)c2)s1 [Ex. 4.119] | 21 | 2050

Row | Structure (SMILES) | IC50 (human orexin-1 receptor) [nM] | IC50 (human orexin-2 receptor) [nM]
21 | COc1cc2nc([C@]3(C)CCCN3C(=O)c3cc(Cl)ccc3-n3nccn3)[nH]c2cc1OC [Ex. 5.64] | 17 | 19
22 | C=C1C[C@@H](c2nc3cc(OC)ccc3[nH]2)N(C(=O)c2nc(C)sc2-c2cccc(F)c2)C1 [Ex. 6.33] | 213 | 23
23 | Cc1cccc(-c2ccc(C)cc2C(=O)N2CCC[C@@]2(C)c2nc3cc(C)c(C)cc3n2CC2CC2)c1 [Ex. 7.26] | 42 | 54
24 | C=C1CC(c2nc3c(Br)cccc3[nH]2)N(C(=O)c2nc(C3CC3)sc2-c2cccc(C)c2)C1 (stereo not shown) [Ex. 6.93] | 0.9 | 3
25 | C=C1C[C@@H](c2nc3cc(OC)ccc3[nH]2)N(C(=O)c2nc(C)sc2-c2ccc(F)c(Br)c2)C1 [Ex. 6.24] | 53 | 17
26 | CSc1ccc2nc([C@@H]3CCCN3C(=O)c3c(F)cccc3-n3nccn3)[nH]c2c1 [Ex. 1.148] | 1170 | 44
27 | Cc1nc(C(=O)N2CCCC2c2nc3cc(C(F)(F)F)c(Cl)cc3[nH]2)c(-c2cccc(Cl)c2)s1 (stereo not shown) [Ex. 1.113] | 5 | 58
28 | COc1ccc(-n2nccn2)c(C(=O)N2CCC[C@H]2c2nc3cccc(SC)c3[nH]2)c1 [Ex. 1.166] | 45 | 4
29 | COC(=O)c1cccc2nc([C@@H]3[C@@H](C)CCN3C(=O)c3nc(C)sc3-c3cccc(Cl)c3)[nH]c12 [Ex. 4.13] | 26 | 4910
30 | COc1cc2nc([C@]3(C)CCCN3C(=O)c3cc(C)ccc3-n3nccn3)n(CCF)c2cc1OC [Ex. 7.48] | 33 | 40
31 | C=C1C[C@@H](c2nc3cc(OC)ccc3[nH]2)N(C(=O)c2ccccc2-c2cccc(C)c2)C1 [Ex. 6.14] | 87 | 12
32 | CO[C@@H]1C[C@@H](c2nc3ccc(Cl)c(C)c3[nH]2)N(C(=O)c2nc(N(C)C)sc2-c2ccc(C)c(C)c2)C1 [Ex. 3.33] | 0.8 | 10
33 | COc1ccc(-c2cccc(F)c2)c(C(=O)N2CCC[C@@]2(C)c2nc3ccc(Cl)c(C)c3[nH]2)c1F [Ex. 5.300] | 10 | 18
34 | Cc1nc(C(=O)N2CCC[C@H]2c2nc3cccc(Cl)c3[nH]2)c(-c2cccc(Cl)c2)s1 [Ex. 1.14] | 34 | 32
35 | COc1ccc(-c2ccc(OC)c(F)c2C(=O)N2CCC[C@@]2(C)c2nc3c(C)c(Cl)ccc3[nH]2)cc1 [Ex. 5.297] | 41 | 57
36 | Cc1ccc(-c2cccc(C(F)(F)F)c2)c(C(=O)N2CCC[C@@]2(C)c2nc3cc(C(F)(F)F)ccc3[nH]2)c1 [Ex. 5.195] | 73 | 102
37 | Cc1cc(C(=O)N2CCC[C@@]2(C)c2nc3c(C)c(Cl)ccc3[nH]2)c(-c2ccccc2)cn1 [Ex. 5.264] | 25 | 65
38 | C=C1C[C@@H](c2nc3ccc(OC)cc3[nH]2)N(C(=O)c2cc(Cl)ccc2-n2nccn2)C1 [Ex. 6.136] | 765 | 4
39 | Cc1cc2nc([C@]3(C)CCCN3C(=O)c3cc(Cl)ccc3-n3nccn3)[nH]c2cc1C [Ex. 5.53] | 24 | 23
40 | C=C1CC(c2nc3c(C)cc(C)cc3[nH]2)N(C(=O)c2cc(C)sc2-c2ccc(C)c(C)c2)C1 (stereo not shown) [Ex. 6.76] | 4 | 4

Row | Structure (SMILES) | IC50 (human orexin-1 receptor) [nM] | IC50 (human orexin-2 receptor) [nM]
41 | COc1ccc2nc([C@@H]3CCCN3C(=O)c3nc(C)sc3-c3ccc(Br)cc3)[nH]c2c1 [Ex. 1.18] | 935 | 153
42 | Cc1ccc(-n2nccn2)c(C(=O)N2CCC[C@@]2(C)c2nc3c(C)cc(C)cc3[nH]2)c1 [Ex. 5.16] | 16 | 18
43 | Cc1cc2nc([C@]3(C)CCCN3C(=O)c3ccccc3-n3nccn3)[nH]c2cc1C [Ex. 5.61] | 112 | 26
44 | COc1ccc2[nH]c([C@@H]3CCCN3C(=O)c3cc(C)ccc3-n3cccn3)nc2c1 [Ex. 1.171] | 2210 | 36
45 | Cc1cc(C(=O)N2CCC[C@@]2(C)c2nc3cc(F)c(Br)cc3[nH]2)c(-n2nccn2)cc1C [Ex. 5.127] | 1 | 6
46 | Cc1nc(C(=O)N2CC[C@H](C)[C@H]2c2nc3c(C(F)(F)F)cccc3[nH]2)c(-c2ccc(Cl)cc2)s1 [Ex. 4.150] | 6 | 180
47 | CSc1cccc2nc([C@@H]3CCCN3C(=O)c3nc(C4CC4)sc3-c3ccc(F)cc3)[nH]c12 [Ex. 1.70] | 26 | 26
48 | CO[C@H]1CN(C(=O)c2cc(C)ccc2-n2nccn2)C(C)(c2nc3c(C)cccc3[nH]2)C1 (stereo partly shown) [Ex. 3.26] | 50 | 66
49 | COc1cc2nc([C@@H]3[C@@H](C)CCN3C(=O)c3nc(C)sc3-c3cc(F)cc(F)c3)[nH]c2cc1OC [Ex. 4.52] | 19 | 1070
50 | Cc1nc(C(=O)N2CC[C@H](C)[C@H]2c2nc3c(Cl)cccc3[nH]2)c(-c2ccc(Br)cc2)s1 [Ex. 4.123] | 21 | 871
51 | C=C1C[C@@H](c2nc3cc(C(C)(C)C)ccc3[nH]2)N(C(=O)c2cc(Cl)ccc2-n2nccn2)C1 [Ex. 6.161] | 51 | 3
52 | Cc1c(Br)cc2[nH]c([C@]3(C)CCCN3C(=O)c3ccccc3-c3ccccc3)nc2c1C [Ex. 5.269] | 15 | 22
53 | C=C1C[C@@H](c2nc3cc(Cl)c(C(F)(F)F)cc3[nH]2)N(C(=O)c2nc(C)ccc2-n2nccn2)C1 [Ex. 6.190] | 10 | 9
54 | COc1ccc(-n2nccn2)c(C(=O)N2CCC[C@@]2(C)c2nc3cc(C)c(C)cc3[nH]2)c1 [Ex. 5.54] | 33 | 20
55 | COc1ccc(-c2cccc(C#N)c2)c(C(=O)N2CCC[C@@]2(C)c2nc3c(C)c(Cl)ccc3[nH]2)c1F [Ex. 5.307] | 20 | 49
56 | Cc1ccc(-n2nccn2)c(C(=O)N2CCC[C@@]2(C)c2nc3cc(Cl)c(C)cc3[nH]2)c1 [Ex. 5.15] | 5 | 22
57 | Cc1ccc(-n2nccn2)c(C(=O)N2CCC[C@H]2c2nc3cc(Cl)ccc3[nH]2)c1 [Ex. 1.3] | 265 | 51
58 | Cc1ccc(-c2cccc(F)c2)c(C(=O)N2CCC[C@@]2(C)c2nc3cc(C(F)(F)F)ccc3[nH]2)c1 [Ex. 5.182] | 10 | 55
59 | COc1cccc(-c2ccc(C)cc2C(=O)N2CCC[C@@]2(C)c2nc3cc(C)c(C)cc3n2C)c1 [Ex. 7.42] | 38 | 28
